Experimental data taken from US8211662B2, “Nitroreductase enzymatic substrates” (Biomerieux, priority 2007, dated 2012).

Key:
Staph spp 12 strains = experiment: Detection of various strains of S. aureus in the presence of substrates; format: cell-based
[1] = tested on: Candida glabrata NCPF 3943; experiment: Nitroreductase detection on Columbia agar, colonies read under UV; format: cell-based; set-up: key to Intensity of fluorescence, Candida glabrata NCPF3943 / F: fluorescence (intensity), Candida glabrata NCPF 3943 / Intensity of the fluorescence, Candida glabrata NCPF 3943: − = no fluorescence detected; +/− = weak fluorescence; + = medium fluorescence; ++ = strong fluorescence; conditions: 100 mg/l in Columbia agar, 24 h 37° C., UV 360-365 nm
Description: (§1) A mass of 40 mg of each substrate was dissolved in 4 ml of dimethylformamide (DMF). This solution was entirely taken up in 400 ml of Columbia agar autoclaved beforehand and kept molten at 50° C. The final concentration for each substrate was 100 mg/l.
(§2) Each of the media was distributed into Petri dishes 90 mm in diameter, in a proportion of 20 ml per dish.
(§3) 18 microorganism strains derived from collections and belonging to various species of bacteria and of yeasts were inoculated onto these media by semi-quantitative isolation of 10 μl of a suspension at 0.5 McFarland diluted to 1/20. The media were incubated for 24 hours at 37° C., then the colonies formed were examined visually under UV illumination at 360-365 nm.

[2] = tested on: Morganella morganii 462403 (wild); experiment: as above; format: cell-based; set-up: key to Intensity of fluorescence, Morganella morganii 462403 / F: fluorescence (intensity), Morganella morganii 462403 (wild) / Intensity of the fluorescence, Morganella morganii 462403 (wild): − = no fluorescence detected; +/− = weak fluorescence; + = medium fluorescence; ++ = strong fluorescence; conditions: 100 mg/l in Columbia agar, 24 h 37° C., UV 360-365 nm
Description: as §1, §2, §3

MRSA NCTC 11939 = experiment: as above; format: cell-based, Staphylococcus aureus; set-up: key: − = no fluorescence detected; +/− = weak fluorescence; + = medium fluorescence; ++ = strong fluorescence; conditions: 100 mg/l in Columbia agar, 24 h 37° C., UV 360-365 nm
Description: as §1, §2, §3

S. epidermidis 2 strains = experiment: Detection of various strains of S. aureus in the presence of substrates; format: cell-based
Description: as §1, §2
18 microorganism strains derived from collections and belonging to various species of bacteria and of yeasts were inoculated onto these media by semi-quantitative isolation of 10 μl of a suspension at 0.5 McFarland diluted to 1/20. […]

[3] = tested on: Acinetobacter baumanii ATCC 19606; experiment: Nitroreductase detection on Columbia agar, colonies read under UV; format: cell-based; set-up: key to Intensity of fluorescence, Acinetobacter baumanii ATCC 19606 / Intensity of the fluorescence, Acinetobacter baumanii ATCC 19606: − = no fluorescence detected; +/− = weak fluorescence; + = medium fluorescence; ++ = strong fluorescence
Description: as §1, §2, §3

[4] = tested on: Staphylococcus aureus NCTC 6571; experiment: as above; format: cell-based; set-up: key: − = no fluorescence detected; +/− = weak fluorescence; + = medium fluorescence; ++ = strong fluorescence; conditions: 100 mg/l in Columbia agar, 24 h 37° C., UV 360-365 nm
Description: as §1, §2, §3

[5] = tested on: Enterobacter cloacae NCTC 11936; experiment: as above; format: cell-based; set-up: key: − = no fluorescence detected; +/− = weak fluorescence; + = medium fluorescence; ++ = strong fluorescence; conditions: 100 mg/l in Columbia agar, 24 h 37° C., UV 360-365 nm
Description: as §1, §2, §3

[6] = tested on: Enterococcus faecalis NCTC 775; experiment: as above; format: cell-based; set-up: key: − = no fluorescence detected; +/− = weak fluorescence; + = medium fluorescence; ++ = strong fluorescence; conditions: 100 mg/l in Columbia agar, 24 h 37° C., UV 360-365 nm
Description: as §1, §2, §3

[7] = tested on: Serratia marcescens NCTC 10211; experiment: as above; format: cell-based; set-up: key: − = no fluorescence detected; +/− = weak fluorescence; + = medium fluorescence; ++ = strong fluorescence; conditions: 100 mg/l in Columbia agar, 24 h 37° C., UV 360-365 nm
Description: as §1, §2, §3

[8] = tested on: Yersinia enterocolitica NCTC 11176; experiment: as above; format: cell-based; set-up: key: − = no fluorescence detected; +/− = weak fluorescence; + = medium fluorescence; ++ = strong fluorescence; conditions: 100 mg/l in Columbia agar, 24 h 37° C., UV 360-365 nm
Description: as §1, §2, §3

[9] = tested on: Staphylococcus epidermidis NCTC 11047; experiment: as above; format: cell-based; set-up: key: − = no fluorescence detected; +/− = weak fluorescence; + = medium fluorescence; ++ = strong fluorescence; conditions: 100 mg/l in Columbia agar, 24 h 37° C., UV 360-365 nm
Description: as §1, §2, §3

[10] = tested on: Listeria monocytogenes NCTC 11994; experiment: as above; format: cell-based; set-up: key: − = no fluorescence detected; +/− = weak fluorescence; + = medium fluorescence; ++ = strong fluorescence; conditions: 100 mg/l in Columbia agar, 24 h 37° C., UV 360-365 nm
Description: as §1, §2, §3

[11] = tested on: Candida albicans ATCC 90028; experiment: as above; format: cell-based; set-up: key: − = no fluorescence detected; +/− = weak fluorescence; + = medium fluorescence; ++ = strong fluorescence; conditions: 100 mg/l in Columbia agar, 24 h 37° C., UV 360-365 nm
Description: as §1, §2, §3

[12] = tested on: Streptococcus pyogenes NCTC 8306; experiment: as above; format: cell-based; set-up: key: − = no fluorescence detected; +/− = weak fluorescence; + = medium fluorescence; ++ = strong fluorescence; conditions: 100 mg/l in Columbia agar, 24 h 37° C., UV 360-365 nm
Description: as §1, §2, §3

[13] = tested on: Bacillus subtilis NCTC 9372; experiment: as above; format: cell-based; set-up: key: − = no fluorescence detected; +/− = weak fluorescence; + = medium fluorescence; ++ = strong fluorescence; conditions: 100 mg/l in Columbia agar, 24 h 37° C., UV 360-365 nm
Description: as §1, §2, §3

[14] = tested on: Pseudomonas aeruginosa NCTC 10662; experiment: as above; format: cell-based; set-up: key: − = no fluorescence detected; +/− = weak fluorescence; + = medium fluorescence; ++ = strong fluorescence; conditions: 100 mg/l in Columbia agar, 24 h 37° C., UV 360-365 nm
Description: as §1, §2, §3

[15] = tested on: Escherichia coli NCTC 10418; experiment: as above; format: cell-based; set-up: key: − = no fluorescence detected; +/− = weak fluorescence; + = medium fluorescence; ++ = strong fluorescence; conditions: 100 mg/l in Columbia agar, 24 h 37° C., UV 360-365 nm
Description: as §1, §2, §3

[16] = tested on: Salmonella typhimurium NCTC 74; experiment: as above; format: cell-based; set-up: key to Intensity of fluorescence, Salmonella typhimurium NCTC 74 / F: fluorescence (intensity), Salmonella typhimurium NCTC 74 / Intensity of the fluorescence, Salmonella typhimurium NCTC 74: − = no fluorescence detected; +/− = weak fluorescence; + = medium fluorescence; ++ = strong fluorescence
Description: as §1, §2, §3

Enterococcus 6 strains = experiment: Detection of various strains of S. aureus in the presence of substrates; format: cell-based
[17] = tested on: S. aureus (including MRSA) 10 strains; experiment: as above; format: cell-based, Staphylococcus aureus; conditions: for No. of strains detected, S. aureus (including MRSA): 10 strains
[18] = 100 mg/l in Columbia agar, 24 h 37° C., UV 360-365 nm

- Intensity of fluorescence, Morganella morganii 462403 [2]: +/−
- Intensity of fluorescence, Acinetobacter baumanii ATCC 19606 [3, 18]: +/−
- Intensity of fluorescence, Enterobacter cloacae NCTC 11936 [5]: +
- Intensity of fluorescence, Enterococcus faecalis NCTC 775 [6]: −
- Intensity of fluorescence, Serratia marcescens NCTC 10211 [7]: +
- Intensity of fluorescence, Listeria monocytogenes NCTC 11994 [10]: −
- Intensity of fluorescence, Streptococcus pyogenes NCTC 8306 [12]: −
- Intensity of fluorescence, Bacillus subtilis NCTC 9372 [13]: −
- Intensity of fluorescence, Pseudomonas aeruginosa NCTC 10662 [14]: −
- Intensity of fluorescence, Salmonella typhimurium NCTC 74 [16, 18]: −
- Salmonella typhimurium result with the substrate ([16]; table 2): negative
Compound: O=[N+]([O-])c1ccccc1-c1nc2cc(Cl)ccc2o1 [Substrate 2]
- No. of strains detected, Staph spp (Staph spp 12 strains; 24 h): 12
- No. of strains detected, Staph spp (Staph spp 12 strains; 48 h): 12
- Intensity of fluorescence, Candida glabrata NCPF3943 [1]: −
- Intensity of fluorescence, Staphylococcus aureus NCTC 11939 (MRSA NCTC 11939): +
- No. of strains detected, S. epidermidis (S. epidermidis 2 strains; 24 h): 0
- No. of strains detected, S. epidermidis (S. epidermidis 2 strains; 48 h): 2
- Distinguishing Pseudomonas aeruginosa from Acinetobacter baumanii ([3]; table 2): make it possible to distinguish Pseudomonas aeruginosa from Acinetobacter baumanii
- Intensity of fluorescence, Staphylococcus aureus NCTC 6571 [4]: +
- Intensity of fluorescence, Yersinia enterocolitica NCTC 11176 [8]: +/−
- Intensity of fluorescence, Staphylococcus epidermidis NCTC 11047 [9]: −
- Intensity of fluorescence, Candida albicans ATCC 90028 [11]: −
- Intensity of fluorescence, Escherichia coli NCTC 10418 [15]: +^1
- No. of strains detected, Enterococcus (Enterococcus 6 strains; 24 h): 0
- No. of strains detected, Enterococcus (Enterococcus 6 strains; 48 h): 1
- Distinguishing or identifying Staphylococcus aureus strains, in particular MRSA, from most of the other Gram-positive bacterial strains [17]: make it possible to distinguish or identify the Staphylococcus aureus strains
- No. of strains detected, S. aureus (including MRSA) ([17]; 24 h): 10
- No. of strains detected, S. aureus (including MRSA) ([17]; 48 h): 10
